Test results reported in patent KR20200071421A, “왕귀뚜라미에서 유래한 항균 펩타이드 테레오그릴루신 3 및 그의 조성물” (대한민국(농촌진흥청장), priority 2018, dated 2020).
Peptide text beside a SMILES is read from it.

System: rat erythrocytes
Assay: Cytotoxicity to rat erythrocytes (hemolysis, absorbance 550 nm)
Assay type: cell-based
Details: for % 렛 적혈구 파괴능: 37 ℃, 30 min, 0.1 % Triton X-100 = 100 %

Structure (SMILES) | % 렛 적혈구 파괴능 (12.5 ㎍/ml peptide) | % 렛 적혈구 파괴능 (25 ㎍/ml peptide) | % 렛 적혈구 파괴능 (50 ㎍/ml peptide) | % 렛 적혈구 파괴능 (100 ㎍/ml peptide) | % 렛 적혈구 파괴능 (200 ㎍/ml peptide) | erythrocyte lysis, result in words (concentrations up to 200 ㎍/ml) | cytotoxicity to erythrocytes, result in words (even at low concentrations)
CC[C@H](C)[C@H](NC(=O)[C@H](Cc1ccccc1)NC(=O)[C@H](Cc1ccccc1)NC(=O)[C@H](CC(C)C)NC(=O)[C@H](CCCCN)NC(=O)[C@H](CC(N)=O)NC(=O)[C@H](CCCCN)NC(=O)[C@H](Cc1c[nH]c2ccccc12)NC(=O)[C@H](Cc1ccccc1)NC(=O)[C@@H](N)CCSC)C(=O)N[C@H](C(=O)N[C@@H](CCCCN)C(=O)N[C@@H](CCCCN)C(N)=O)C(C)C [Teleogryllusine 3, MFWKNKLFFIVKK-NH2] (H-MFWKNKLFFIVKK-NH2) | 0% | 0.09% | 0.28% | 0% | 1.22% | 파괴능이 미미함 | –
CC[C@H](C)[C@H](NC(=O)CN)C(=O)NCC(=O)N[C@@H](C)C(=O)N[C@H](C(=O)N[C@@H](CC(C)C)C(=O)N[C@@H](CCCCN)C(=O)N[C@H](C(=O)N[C@@H](CC(C)C)C(=O)N[C@H](C(=O)N[C@H](C(=O)NCC(=O)N[C@@H](CC(C)C)C(=O)N1CCC[C@H]1C(=O)N[C@@H](C)C(=O)N[C@@H](CC(C)C)C(=O)N[C@H](C(=O)N[C@@H](CO)C(=O)N[C@@H](Cc1c[nH]c2ccccc12)C(=O)N[C@H](C(=O)N[C@@H](CCCCN)C(=O)N[C@@H](CCCNC(=N)N)C(=O)N[C@@H](CCCCN)C(=O)N[C@@H](CCCNC(=N)N)C(=O)N[C@@H](CCC(N)=O)C(=O)N[C@@H](CCC(N)=O)C(N)=O)[C@@H](C)CC)[C@@H](C)CC)[C@@H](C)O)[C@@H](C)O)C(C)C)C(C)C [멜리틴] | 75.8% | 83.1% | 89.8% | 88.3% | 91.4% | – | 높은 세포 독성
